Source: patent publication US20240197828A1, “Chimeric molecule to treat sepsis and other inflammatory conditions” (THE FEINSTEIN INSTITUTES FOR MEDICAL RESEARCH, priority 2022, published 2024)

Legend:
RAW264.7 macrophages = test: Intracellular uptake of FITC-rmCIRP by macrophages (flow cytometry, confocal microscopy); format: cell-based, mouse; conditions: RAW264.7, FITC-rmCIRP 1 μg/mL co-incubated with test substance (peptide 10 μg/mL), 1 hour, vs FITC-rmCIRP alone
Method: FIG. 3. Effects of MOP peptides MOP-3, MOP-8 and MOP-14 on eCIRP. Flow cytometry experiment whereby RAW264.7 macrophages were treated for 1 hour according to respective group: PBS (volume-equivalent), FITC-rmCIRP (1 μg/mL), or a mixture of FITC-rmCIRP (1 μg/mL) with each respective peptide (10 μg/mL) after co-incubating for 30 minutes. Intracellular FITC-rmCIRP was analyzed by flow cytometry. Median fluorescence intensity (MFI) reported as percentage relative to PBS-treated RAW264.7 cells. Data from two independent experiments are expressed as mean±SEM and compared by one-way ANOVA and SNK test. *p<0.05 vs. PBS, #p<0.05 vs. eCIRP.
(§1) Computational modeling was used to determine the likely domain of MFG-E8's binding to eCIRP. The known amino acid (AA) sequence of this domain was used to develop and test potential therapeutic peptides. An MFG-E8 derived oligopeptide, MOP3, was developed based on 15 AA from MFG-E8 discoidin 2 domain (mimicking MFG-E8's C-terminal) and tagged with the 3 AA, RGD, (mimicking MFG-E8's binding capacity for the integrin receptor at the N-terminal). Binding of MOP3 to CIRP was quantified using Surface Plasmon Resonance (SPR) analysis. Macrophages (RAW264.7 cells) were treated with FITC-recombinant mouse (rm)-CIRP or co-incubated MOP3 and FITC-rmCIRP with and without a. Br-integrin Ab. After 1 h, cells were fixed and analyzed for intracellular FITC-rmCIRP by flow cytometry. Macrophages were stimulated with rmCIRP or co-incubated mixture of MOP3 and rmCIRP. After 4 h, cell culture supernatants were analyzed for inflammatory cytokine, TNFα.
Mouse macrophage cell line, RAW264.7 cells were obtained from American Type Culture Collection (ATCC) and cultured in DMEM media with 10% FBS, 1% penicillin and streptomycin, and 1% glutamine. Cells were kept in 37° C. incubator under humidified conditions containing 5% CO2.
rmCIRP was labeled using a FITC Conjugation Kit (Abcam, ab188285), and rmMFG-E8 was labeled using Alexa Fluor Conjugation Kit (Abcam, ab269821), both according to respective manufacturer's instructions.
In order to visualize cellular uptake, we initially utilized TRITC-BSA as an internal probe, as BSA is taken up into cells primarily by endocytosis and retained intracellularly after fixation (27, 28). For further visualization of intracellular localization, we utilized LAMP1 primary antibody (as it is distributed among endolysosomal organelles and serves as a marker for lysosomal compartments) (29), and utilized lysotracker in live cell experiments (as it allows for imaging of dynamics of lysosome vesicle movements) (30). RAW264.7 cells were treated in various conditions with rmCIRP, rmMFG-E8, and inhibitory antibody against auß3-integrin (Bioss antibodies, bs-1310R) for 4 hours. Cells were fixed with 4% paraformaldehyde (PFA), washed with 1×PBS, permeabilized using 0.3% Triton x100, and blocked using 5% BSA 100 mM Glycine in PBS prior to primary antibody treatment. After incubation with secondary antibodies, cells were washed and mounted with ProLong Gold antifade reagent (Invitrogen). For live cell imaging, cells remained in treatment conditions and were imaged under CO2. Staining procedures were performed according to the manufacturers' instructions utilizing respective fluorescent dyes and probes. For all imaging, confocal microscopy images were obtained using a Zeiss LSM880 confocal microscope equipped with a 63× objective. Images were quantified and analyzed using Image J, FIJI.(31) Flow cytometry.
To detect changes in internalized eCIRP in the presence of MFG-E8, RAW264.7 cells were seeded in 12-well plates (approximately 3×10^5 cells/well) and were treated with FITC-eCIRP. Treatment groups consisted of FITC-eCIRP, FITC-eCIRP with MFG-E8, FITC-eCIRP with MFG-E8 and αvβ3-integrin antibody (0.5 μg/mL), or FITC-eCIRP with MFG-E8 and IgG isotype (0.5 μg/mL). Similar experiments were conducted with MOP3 instead of MFG-E8 in parallel groups. […]

RAW264.7 cells = test: eCIRP-induced cytokine release in RAW264.7 cells (ELISA of supernatants); format: cell-based, mouse; conditions: RAW264.7, rmCIRP 1 μg/mL, 4 hours, vs rmCIRP alone
Method: FIG. 2. Effects of MOP peptides on TNFα levels. RAW264.7 macrophages were cultured and treated with either volume-equivalent PBS, recombinant murine (rm) CIRP (eCIRP; 1 μg/mL), or rmCIRP with each respective peptide (10 μg/mL). After 4 hours, cell supernatants were assessed for TNFα levels by ELISA. Experiments were performed 3 times, and all data were used for analysis. Data are expressed as mean±SEM and compared by one-way ANOVA and SNK test. *p<0.05 vs. PBS, #p<0.05 vs. eCIRP.
FIG. 4. eCIRP-induced inflammation is attenuated by MOP3. RAW264.7 cells were treated according to respective groups: PBS (volume equivalent), rmCIRP (1 μg/mL), or rmCIRP with MOP3 at increasing doses. After 4 hours, cell supernatants were analyzed for TNFα levels by ELISA. Experiments were performed 3 times, and all data were used for analysis. Data are expressed as mean #SEM and compared by one-way ANOVA and SNK test. *p<0.05 vs. PBS, #p<0.05 vs. eCIRP.
as §1
Mouse macrophage cell line, RAW264.7 cells were obtained from American Type Culture Collection (ATCC) and cultured in DMEM media with 10% FBS, 1% penicillin and streptomycin, and 1% glutamine. Cells were kept in 37° C. incubator under humidified conditions containing 5% CO2. […]
The mouse macrophage cell culture supernatants were analyzed for cytokine levels using ELISA kits (BD Biosciences, CA). […] TNF-α and IL-6 levels were measured in cell supernatants by ELISA in accordance with respective manufacturers' instructions (BD Biosciences, CA). Blood was collected, centrifuged at 4,000 RPM for 10 minutes, and sera was separated and analyzed for cytokine levels using ELISA kits (BD Biosciences, CA). TNF-α and IL-6 levels in the serum were measured by ELISA in accordance with respective manufacturers' instructions.

MOP3-modification to “RGT”: modified peptide whereby the Arg-Gly-Asp AAs of MOP3 were edited to Arg-Gly-Thr (RGT) (RGTSSSYKTWNLRAFGWY) [reference compound]
intracellular FITC-rmCIRP uptake (flow cytometry) (RAW264.7 macrophages): loss of ability to internalize FITC-eCIRP

RGDVTGIITQGARDFGHI (listed as Mus musculus) [MOP8, RGD-tagged segment of murine MFG-E8 discoidin domain 2]
intracellular FITC-rmCIRP uptake (flow cytometry) (RAW264.7 macrophages): only a single peptide screened, peptide-3, could increase intracellular uptake | TNFα levels in cell supernatants (RAW264.7 cells): capable of attenuating TNFα release

RGDPFMARYVRVLPVSWH (listed as Mus musculus) [MOP14, RGD-tagged segment of murine MFG-E8 discoidin domain 2]
intracellular FITC-rmCIRP uptake (flow cytometry) (RAW264.7 macrophages): only a single peptide screened, peptide-3, could increase intracellular uptake | TNFα levels in cell supernatants (RAW264.7 cells): capable of attenuating TNFα release
